Source: ChEMBL document CHEMBL3616452 (Eur J Med Chem, 2015)

Target: Nucleoprotein (Influenza A virus (strain A/Wilson-Smith/1933 H1N1), UniProt P15682, S377G)
Test: Binding affinity to Influenza A virus (A/WSN/1933(H1N1)) nucleoprotein S377G mutant transfected in 293T cells assessed as inhibition of RNA dependent RNA polymerase activity
Type: cell-based, Influenza A virus (A/Weiss/1943(H1N1))

Compound | IC50
Cn1c(=O)c2c(-c3ccccc3)n3c(c2n(C)c1=O)C(c1ccccc1F)OCC3(C)C (configuration not stated) | 1700 nM
Cc1onc(-c2ccccc2Cl)c1C(=O)N1CCN(c2ccc([N+](=O)[O-])cc2)CC1 | 300 nM
